Like-named read-outs stand apart in the source and are kept apart here.
Assays:
MOLT-4 = assay: NCI 60 antitumor screening (single dose / five doses); assay type: cell-based; conditions: Homo sapiens
MDA-MB-231/ATCC = assay: as above; assay type: cell-based; conditions: Homo sapiens
RXF 393 = assay: as above; assay type: cell-based; conditions: Homo sapiens
MDA-MB-435 = assay: as above; assay type: cell-based; conditions: Homo sapiens
HCT-15 = assay: as above; assay type: cell-based; conditions: Homo sapiens
SF-539 = assay: as above; assay type: cell-based; conditions: Homo sapiens
UACC-62 = assay: as above; assay type: cell-based; conditions: Homo sapiens
UO-31 = assay: as above; assay type: cell-based; conditions: Homo sapiens
MALME-3M = assay: as above; assay type: cell-based; conditions: Homo sapiens; for inhibition at 10 µM: read-out: Growth inhibition percentage (GI %)
SNB-75 = assay: as above; assay type: cell-based; conditions: Homo sapiens
HL-60(TB) = assay: as above; assay type: cell-based; conditions: Homo sapiens
NCI-H322M = assay: NCI 60 antitumor screening (single dose); assay type: cell-based; conditions: Homo sapiens; NCI-H322M (non-small cell lung cancer), single dose 10 μM; read-out: Growth inhibition percentage (GI %)
Procedure, shortened: (§1)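 NCI-60 one-dose screen. Dose: 10 μM. Lines: 60 human tumour lines, nine tissue types. Output: GI% = 100 − G%.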

A549/ATCC = assay: NCI 60 antitumor screening (single dose); assay type: cell-based; conditions: Homo sapiens; A549/ATCC (non-small cell lung cancer), single dose 10 μM; read-out: Growth inhibition percentage (GI %)
Procedure, shortened: as §1

SF-268 = assay: NCI 60 antitumor screening (single dose); assay type: cell-based; conditions: Homo sapiens; SF-268 (CNS cancer), single dose 10 μM; read-out: Growth inhibition percentage (GI %)
Procedure, shortened: (§2)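 Assessment used the first tier of the NCI 60 screen, one dose of 10 μM per compound. Triplicate experiments gave percent growth of treated cells. Inhibition was then derived as 100 − G%.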

CAKI-1 = assay: NCI 60 antitumor screening (single dose); assay type: cell-based; conditions: Homo sapiens; CAKI-1 (renal cancer), single dose 10 μM; read-out: Growth inhibition percentage (GI %)
Procedure, shortened: as §1

NCI-H522 = assay: NCI 60 antitumor screening (single dose); assay type: cell-based; conditions: Homo sapiens; NCI-H522 (non-small cell lung cancer), single dose 10 μM; read-out: Growth inhibition percentage (GI %)
Procedure, shortened: as §2

NCI-H23 = assay: NCI 60 antitumor screening (single dose); assay type: cell-based; conditions: Homo sapiens; NCI-H23 (non-small cell lung cancer), single dose 10 μM; read-out: Growth inhibition percentage (GI %)
Procedure, shortened: as §2

M14 = assay: NCI 60 antitumor screening (single dose); assay type: cell-based; conditions: Homo sapiens; M14 (melanoma), single dose 10 μM; read-out: Growth inhibition percentage (GI %)
Procedure, shortened: as §1

MCF7 = assay: NCI 60 antitumor screening (single dose); assay type: cell-based; conditions: Homo sapiens; MCF7 (breast cancer), single dose 10 μM; read-out: Growth inhibition percentage (GI %)
Procedure, shortened: as §1

A498 = assay: NCI 60 antitumor screening (single dose / five doses); assay type: cell-based; conditions: Homo sapiens
SW-620 = assay: as above; assay type: cell-based, human; conditions: Homo sapiens
[1] = tested on: 60 human subpanel cancer cell lines; assay: NCI 60 antitumor screening, mean over the panel (single dose); assay type: cell-based; conditions: mean over 60 cancer cell lines, single dose 10 μM
Procedure: Initially, the anticancer effects of target compounds have been assessed at a single (10 μM) dose. The obtained data have been reported as mean-graph of the percent growth (G%) of the treated cancer cells. Percentage growth inhibition (GI%) is calculated (100 − G%) and pronounced in Table 1. […] Target compounds in series (III) with manipulated linkers disclosed lower potency. Superiorly, eight s-triazine derivatives from the three series (6a, 6c, 6d, 7a, 7g, 7i, 7l, and 8b) have shown potent broad-spectrum anticancer activity against most the examined cell lines, whereas most of the remaining triazine derivatives, 20 derivatives, have exerted selective anti-proliferative actions towards certain cancer cell lines (Supplementary).
The antitumor screening was performed for 60 human cancer cell lines under the protocol of NCI (www.dtp.nci.nih.gov), the Drug Evaluation Branch, Bethesda, MD. All submitted compounds were nominated based on the degree of structural diversity and computer modelling techniques for evaluation of their anticancer activity. The screening process for antineoplastic activity passes through two successive levels, starting with the assessment of target compounds at a single dose of 10 μM against 60 cancer cell lines on nine types of human tumours. These experiments were done on a triplicate following. The output from the single‐dose screening was covered as a mean graph, and then, analysed by the COMPARE program. Finally, the compounds which disclosed subpanel cancer cell growth (G %) equal to or less than 10% in at least eight cancer cell lines get to pass the assessment against the 60 cell lines at five doses (0.01–100 μM). By using GraphPad Prism version 9.0 (Graphpad Software Inc., La Jolla, CA), GI50, TGI, as well as LC50 dose‐response parameters were computed and presented for each compound (Supplementary information)[55–57].

BT-549 = assay: NCI 60 antitumor screening (single dose / five doses); assay type: cell-based; conditions: Homo sapiens
CCRF-CEM = assay: as above; assay type: cell-based; conditions: Homo sapiens; for inhibition at 10 µM: read-out: Growth inhibition percentage (GI %)
HT29 = assay: as above; assay type: cell-based, human; conditions: Homo sapiens
SK-MEL-5 = assay: as above; assay type: cell-based; conditions: Homo sapiens
RPMI-8226 = assay: as above; assay type: cell-based; conditions: Homo sapiens
786-0 = assay: as above; assay type: cell-based; conditions: Homo sapiens

## Oc1ccccc1/C=N/Nc1nc(N/N=C/c2ccccc2O)nc(N2CCOCC2)n1 [compound 6a, 2-[(1e)-(2-{4-[(E)-2-[(2-Hydroxyphenyl)methylidene]hydrazin-1-yl]-6-(morpholin-4-yl)-1,3,5-triazin-2-yl}hydrazin-1-ylidene)methyl]phenol]
MOLT-4; MOLT-4 (leukaemia), single dose 10 μM, read-out: Growth inhibition percentage (GI %)
  inhibition at 10 µM: 54.9%
MOLT-4; MOLT-4, five doses (0.01–100 μM), read-out: GI50
  GI50: 1550 nM
MDA-MB-231/ATCC; MDA-MB-231/ ATCC, five doses (0.01–100 μM), read-out: GI50
  GI50: 2420 nM
MDA-MB-231/ATCC; MDA-MB-231/ATCC (breast cancer), single dose 10 μM, read-out: Growth inhibition percentage (GI %)
  inhibition at 10 µM: 63.7%
RXF 393; RXF 393 (renal cancer), single dose 10 μM, read-out: Growth inhibition percentage (GI %)
  inhibition at 10 µM: 101%
RXF 393; RXF 393, five doses (0.01–100 μM), read-out: GI50
  GI50: 270 nM
MDA-MB-435; MDA-MB-435 (melanoma), single dose 10 μM, read-out: Growth inhibition percentage (GI %)
  inhibition at 10 µM: 41.1%
MDA-MB-435; MDA-MB-435, five doses (0.01–100 μM), read-out: GI50
  GI50: 9.53 µM
HCT-15; HCT-15 (colon cancer), single dose 10 μM, read-out: Growth inhibition percentage (GI %)
  inhibition at 10 µM: 96.1%
HCT-15; HCT-15, five doses (0.01–100 μM), read-out: GI50
  GI50: 240 nM
SF-539; SF-539 (CNS cancer), single dose 10 μM, read-out: Growth inhibition percentage (GI %)
  inhibition at 10 µM: 48.2%
SF-539; SF-539, five doses (0.01–100 μM), read-out: GI50
  GI50: 7.29 µM
UACC-62; UACC-62 (melanoma), single dose 10 μM, read-out: Growth inhibition percentage (GI %)
  inhibition at 10 µM: 11.2%
UACC-62; UACC-62, five doses (0.01–100 μM), read-out: GI50
  GI50: 2450 nM
UO-31; UO-31 (renal cancer), single dose 10 μM, read-out: Growth inhibition percentage (GI %)
  inhibition at 10 µM: 80.2%
UO-31; UO-31, five doses (0.01–100 μM), read-out: GI50
  GI50: 370 nM
MALME-3M; MALME-3M (melanoma), single dose 10 μM
  inhibition at 10 µM: 47.4%
MALME-3M; MALME-3M, five doses (0.01–100 μM), read-out: GI50
  GI50: 8.69 µM
SNB-75; SNB-75 (CNS cancer), single dose 10 μM, read-out: Growth inhibition percentage (GI %)
  inhibition at 10 µM: 104%
SNB-75; SNB-75, five doses (0.01–100 μM), read-out: GI50
  GI50: 1820 nM
HL-60(TB); HL-60(TB) (leukaemia), single dose 10 μM, read-out: Growth inhibition percentage (GI %)
  inhibition at 10 µM: 96.3%
HL-60(TB); HL-60(TB), five doses (0.01–100 μM), read-out: GI50
  GI50: 190 nM
NCI-H322M
  inhibition at 10 µM: 55.5%
A549/ATCC
  inhibition at 10 µM: 87%
SF-268
  inhibition at 10 µM: 27.7%
CAKI-1
  inhibition at 10 µM: 95.4%
NCI-H522
  inhibition at 10 µM: 39.1%
NCI-H23
  inhibition at 10 µM: 58.5%
M14
  inhibition at 10 µM: 62.4%
MCF7
  inhibition at 10 µM: 60%
A498; A498, five doses (0.01–100 μM), read-out: GI50
  GI50: 1090 nM
SW-620; SW-620, SW-620, five doses (0.01–100 μM), read-out: GI50
  GI50: 1780 nM
SW-620; SW-620 (colon cancer), single dose 10 μM, read-out: Growth inhibition percentage (GI %)
  inhibition at 10 µM: 61.5%
[1]
  Mean GI %: 66.07%
BT-549; BT-549 (breast cancer), single dose 10 μM, read-out: Growth inhibition percentage (GI %)
  inhibition at 10 µM: 23.7%
BT-549; BT-549, five doses (0.01–100 μM), read-out: GI50
  GI50: 5.19 µM
CCRF-CEM; CCRF-CEM (leukaemia), single dose 10 μM
  inhibition at 10 µM: 57.6%
CCRF-CEM; CCRF-CEM, five doses (0.01–100 μM), read-out: GI50
  GI50: 530 nM
HT29; HT-29, HT29, five doses (0.01–100 μM), read-out: GI50
  GI50: 5.89 µM
HT29; HT-29, HT29 (colon cancer), single dose 10 μM, read-out: Growth inhibition percentage (GI %)
  inhibition at 10 µM: 65.8%
SK-MEL-5; SK-MEL-5 (melanoma), single dose 10 μM, read-out: Growth inhibition percentage (GI %)
  inhibition at 10 µM: 34.2%
SK-MEL-5; SK-MEL-5, five doses (0.01–100 μM), read-out: GI50
  GI50: 5.86 µM
RPMI-8226; RPMI-8226 (leukaemia), single dose 10 μM, read-out: Growth inhibition percentage (GI %)
  inhibition at 10 µM: 46.4%
RPMI-8226; RPMI-8226, five doses (0.01–100 μM), read-out: GI50
  GI50: 2780 nM
786-0; 786-0, 786-0 (renal cancer), single dose 10 μM, read-out: Growth inhibition percentage (GI %)
  inhibition at 10 µM: 69.7%
786-0; 786-0, five doses (0.01–100 μM), read-out: GI50
  GI50: 710 nM

## C/C(=N\Nc1nc(N/N=C(\C)c2ccc([N+](=O)[O-])cc2)nc(N2CCOCC2)n1)c1ccc([N+](=O)[O-])cc1 [compound 8a, 2-(Morpholin-4-yl)-4,6-bis[(E)-2-[1–(4-nitrophenyl)ethylidene]hydrazin-1-yl]-1,3,5-triazine]
MOLT-4; MOLT-4, read-out: Growth inhibition percentage (GI %)
  inhibition at 10 µM: 21.1%
MDA-MB-231/ATCC; MDA-MB-231, read-out: Growth inhibition percentage (GI %)
  inhibition at 10 µM: 56.5%
RXF 393; RXF 393, read-out: Growth inhibition percentage (GI %)
  inhibition at 10 µM: 26.3%
MDA-MB-435; MDA-MB-435, read-out: Growth inhibition percentage (GI %)
  inhibition at 10 µM: 15%
HCT-15; HCT-15, read-out: Growth inhibition percentage (GI %)
  inhibition at 10 µM: 33.9%
SF-539; SF-539, read-out: Growth inhibition percentage (GI %)
  inhibition at 10 µM: 84.5%
UACC-62; UACC-62, read-out: Growth inhibition percentage (GI %)
  inhibition at 10 µM: 14.7%
MALME-3M; Malme-3M
  inhibition at 10 µM: 30.6%
SNB-75; SNB-75, read-out: Growth inhibition percentage (GI %)
  inhibition at 10 µM: 19.4%
HL-60(TB); HL-60, read-out: Growth inhibition percentage (GI %)
  inhibition at 10 µM: 7.4%
NCI-H322M
  inhibition at 10 µM: 13.3%
A549/ATCC
  inhibition at 10 µM: 26.1%
SF-268
  inhibition at 10 µM: 3.96%
CAKI-1
  inhibition at 10 µM: 30.8%
NCI-H522
  inhibition at 10 µM: 38.3%
NCI-H23
  inhibition at 10 µM: 42.1%
M14
  inhibition at 10 µM: 25.5%
MCF7
  inhibition at 10 µM: 25.9%
A498; A498, read-out: Growth inhibition percentage (GI %)
  inhibition at 10 µM: 33.9%
SW-620; SW-620, read-out: Growth inhibition percentage (GI %)
  inhibition at 10 µM: 4.48%
[1]
  Mean GI %: 23.27%
BT-549; BT-549, read-out: Growth inhibition percentage (GI %)
  inhibition at 10 µM: 32.7%
CCRF-CEM; CCRF-CEM
  inhibition at 10 µM: 38.4%
HT29; HT-29, read-out: Growth inhibition percentage (GI %)
  inhibition at 10 µM: 19.4%
SK-MEL-5; SK-MEL-5, read-out: Growth inhibition percentage (GI %)
  inhibition at 10 µM: 32.9%
RPMI-8226; RPMI-8226, read-out: Growth inhibition percentage (GI %)
  inhibition at 10 µM: 35.3%
786-0; 786-0, read-out: Growth inhibition percentage (GI %)
  inhibition at 10 µM: 33.1%
